From patent publication US11534457B2, “Use of dextran sulfate” (priority 2017, dated 2022)

Test system: BF4T system [bronchial epithelial cells and HDFn+(TNFα and IL-4)]
Assay: BioMAP BF4T system
Assay type: cell-based, Human
Text: In this study LMW-DS was characterized by profiling in the BioMAP® Diversity PLUS panel. The BioMAP® panel consists of human primary cell-based systems designed to model different aspects of the human body in an in vitro format. The 12 systems in the BioMAP® Diversity PLUS panel (Table 32) allow test agent characterization in an unbiased way across a broad set of systems modeling various human disease states. The BioMA®P systems are constructed with one or more primary cell types from healthy human donors, with stimuli, such as cytokines or growth factors, added to capture relevant signaling networks that naturally occur in human tissue or pathological conditions. […]
Systems are derived from either single cell types or co-culture systems. […] Test agents prepared in either DMSO (small molecules; final concentration 0.1%) or PBS (biologics) are added at the indicated concentrations 1-hr before stimulation, and remain in culture for 24-hrs or as otherwise indicated (48-hrs, MyoF system; 72-hrs, BT system (soluble readouts); 168-hrs, BT system (secreted IgG)). […] Soluble factors from supernatants are quantified using either HTRF® detection, bead-based multiplex immunoassay or capture ELISA. Overt adverse effects of test agents on cell proliferation and viability (cytotoxicity) are detected by sulforhodamine B (SRB) staining, for adherent cells, and alamarBlue® reduction for cells in suspension. […]

low molecular weight dextran sulfate [LMW-DS]
Increased biomarker activity (BF4T system): Eot3 | Eotaxin-3 (lower concentrations only): Modestly increased
